Experimental data taken from patent publication US6613932B1, “Prostaglandin derivatives” (Taisho Pharmaceutical Co., Ltd., priority 1999, dated 2003).

System: human vascular smooth muscle cells
Experiment: Determination of DNA synthesis inhibition activity (3H-thymidine intake) to human vascular smooth muscle cells
Assay type: cell-based
Settings: for Growth inhibition rate (per cent to control): 1 × 10^−5 M compound added, 3H-thymidine intake after culturing 24 hours, compared with vehicle-treated group as control; for inhibiting activity on the growth of human vascular smooth muscle cells: summary in words of Table 1 (1 × 10^−5 M)
Method: Experiment [Determination of DNA synthesis inhibition activity of PGE1 derivatives to human vascular smooth muscle cells]
On a 24-well plate (manufactured by Corning Co.), 1×10^4 cells/well of quintic culture cells of vascular cells derived from normal human aorta (produced by Kurabo Co.) were inoculated and cultured for 2 days. The medium was exchanged from the growth medium (SG2: produced by Kurabo Co.) to the basal medium (SB2: produced by Kurabo Co.), and cultured for 24 hours, to which was added the growth medium (SG2) containing an ethanol solution of the test compound. ^3H-Thymidine (produced by Daiichi Chemicals Co.) was added in an amount of 0.01 mci/well and, after culturing for 24 hours, the cultured supernatant was removed by suction, followed by washing with a phosphate buffer solution (PBS). 5% Trichloroacetic acid (TCA) was added and, after allowing to stand at 4° C. for 20 minutes, the mixture was washed once with TCA. The mixture was washed with PBS, and dissolved in 0.5 M aqueous potassium hydroxide solution. Intake of ^3H-thymidine was determined using 20 μl of the aqueous potassium hydroxide solution dissolving the cells which incorporated ^3H-thymidine in the nucleus by means of a liquid scintillation counter (manufactured by Hewlett-Packard Co.).
Note: The test compounds were each used as an ethanol solution and compared with a vehicle-treated group as control.

Compound | Growth inhibition rate (per cent to control) | inhibiting activity on the growth of human vascular smooth muscle cells
CCCC1(C(O)C/C=C/C2C(SCCO)CC(=O)C2CCCCCCC(=O)OC)CCC1 [Compound 23, (11S,16S)-11,15-dideoxy-11-(2-hydroxyethylthio)-16-hydroxy-17,17-trimethylene-PGE1 methyl ester] | 91.5 per cent to control | high inhibiting activity
CCCC1(C(O)C/C=C/C2C(SCCO)CC(=O)C2CCCC/C=C/C(=O)OC)CCC1 [Compound 29, (2E,11R,16R)-11,15-Dideoxy-11-(2-hydroxyethylthio)-16-hydroxy-17,17-trimethylene-2,3-didehydro-PGE1 methyl ester] | 100 per cent to control | high inhibiting activity
CCCC1(C(O)C/C=C/C2C(SCCO)CC(=O)C2CCCC/C=C/C(=O)OC)CCC1 [Compound 32, (2E,11R,16S)-11,15-Dideoxy-11-(2-hydroxyethylthio)-16-hydroxy-17,17-trimethylene-2,3-didehydro-PGE1 methyl ester] | 100 per cent to control | high inhibiting activity
CCCC1(C(O)C/C=C/C2C(SCCCO)CC(=O)C2CCCCCCC(=O)OC)CCC1 [Compound 41, (11R,16S)-11,15-Dideoxy-11-(3-hydroxypropylthio)-16-hydroxy-17,17-trimethylene-PGE1 methyl ester] | 93.2 per cent to control | high inhibiting activity
CCCC1(C(O)C/C=C/C2C(SCC(N)C(=O)OC)CC(=O)C2CCCCCCC(=O)OC)CCC1 [Compound 54, (11R,16S)-11,15-Dideoxy-11-[(2R)-2-methoxycarbonyl-2-aminoethylthio]-16-hydroxy-17,17-trimethylene-PGE1 methyl ester] | 100 per cent to control | high inhibiting activity
CCCC1(C(O)C/C=C/C2C(SCC(N)C(=O)OC)CC(=O)C2CCCCCCC(=O)OC)CCC1 [Compound 55, (11S,16S)-11,15-dideoxy-11-[(2R)-2-methoxycarbonyl-2-aminoethylthio]-16-hydroxy-17,17-trimethylene-PGE1 methyl ester] | 94.3 per cent to control | high inhibiting activity
